This note sets out measurements from US20240109912A1, “TRICYCLIC PYRIMIDINES AS CYCLIN-DEPENDENT KINASE 7 (CDK7) INHIBITORS” (JANSSEN PHARMACEUTICA NV, priority 2020, published 2024).

pIC50: −log10 of the molar value.

The test system of series [1] is RNA polymerase II Serine 5 phosphorylation in A549 cells overexpressing CDK7 mutant (C312S). Put plainly: Imaging-based cellular RNA PolII Ser5 phosphorylation assay in A549 cells overexpressing CDK7-mutant (C312S). The class given is cell-based, human. Particulars: Homo sapiens, A549, A549 cells overexpressing CDK7 mutant (C312S); read-out: CDK7_ A549 mutant hCDK7(pIC50) (converted). The procedure, abridged:
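A stably transduced A549 pool overexpressing CDK7 C312S, a mutant that blocks covalent binding at Cys312, while retaining endogenous wild-type CDK7 was used. Ser5 phosphorylation was measured by imaging, and IC50 values were derived.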

Series [2] has as its system RNA polymerase II Serine 5 phosphorylation (CDK7) in A549 cells.
The target in series [3] is CDK7/cyclinH/MAT1 trimeric complex (Homo sapiens (Human), UniProt P50613). Put plainly: In vitro CDK7 assay, potency of irreversible covalent inhibitors (kinact/KI). The following applies: for Ki: CDK7 (20 nM enz.) (KI, μM), 20 nM enz.; for kinact: read-out: CDK7 (20 nM enz.) (kinact, s^−1), 20 nM enz.; for kinact/KI: read-out: CDK7 (20 nM enz.) (kinact/ KI, M^−1*s^−1), 20 nM enz.
Sequence of CDK7/cyclinH/MAT1 trimeric complex (P50613 whole entry): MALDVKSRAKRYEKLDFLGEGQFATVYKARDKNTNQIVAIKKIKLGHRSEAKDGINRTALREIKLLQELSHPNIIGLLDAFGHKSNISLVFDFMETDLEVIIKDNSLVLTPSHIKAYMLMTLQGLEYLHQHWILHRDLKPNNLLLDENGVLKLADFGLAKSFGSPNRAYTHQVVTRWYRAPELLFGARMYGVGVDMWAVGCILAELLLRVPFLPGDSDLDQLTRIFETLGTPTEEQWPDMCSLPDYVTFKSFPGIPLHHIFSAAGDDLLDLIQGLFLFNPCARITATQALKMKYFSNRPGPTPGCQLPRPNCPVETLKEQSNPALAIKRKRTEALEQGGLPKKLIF
Sequence of CDK7/cyclinH/MAT1 trimeric complex (P51946 whole entry partner): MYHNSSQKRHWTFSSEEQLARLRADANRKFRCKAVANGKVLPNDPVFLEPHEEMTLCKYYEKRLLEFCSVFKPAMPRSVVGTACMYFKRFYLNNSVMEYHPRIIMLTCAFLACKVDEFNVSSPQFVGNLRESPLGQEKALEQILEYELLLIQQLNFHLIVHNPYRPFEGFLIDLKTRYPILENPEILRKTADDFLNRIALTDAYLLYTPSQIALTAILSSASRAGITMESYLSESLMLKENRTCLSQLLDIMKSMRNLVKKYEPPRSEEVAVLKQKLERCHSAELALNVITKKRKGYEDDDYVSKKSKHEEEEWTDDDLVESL
Sequence of CDK7/cyclinH/MAT1 trimeric complex (P51948 whole entry partner): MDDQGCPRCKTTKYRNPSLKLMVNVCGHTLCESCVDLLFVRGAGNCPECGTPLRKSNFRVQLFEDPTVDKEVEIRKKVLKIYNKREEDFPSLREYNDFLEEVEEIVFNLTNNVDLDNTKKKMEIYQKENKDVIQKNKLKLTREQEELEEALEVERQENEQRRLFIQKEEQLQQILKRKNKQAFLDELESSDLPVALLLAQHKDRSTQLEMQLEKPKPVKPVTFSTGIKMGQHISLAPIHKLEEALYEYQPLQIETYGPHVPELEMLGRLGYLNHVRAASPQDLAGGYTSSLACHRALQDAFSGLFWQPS

By pIC50 is commonly meant −log10 of the IC50, conventionally taken in molar units. The term kinact denotes the maximal first-order rate at which the target is inactivated. By melting point is commonly meant the temperature, or range, at which the solid turns liquid. Regarding `C=CC(=O)N1CCC(N2CCC(c3cc4c(c(C)n3)OCc3c(ncnc3N3CCS(=O)(=O)CC3)N4)CC2)CC1` [compound 59], the melting point is 259 °C. Besides, the IC50 in series [1] was greater than 10000 nM. In addition, in series [2], the pIC50 was 6.82. For the same compound, in series [3], the Ki came out at 0.0715 µM, the inactivation rate constant (kinact) came out at 5.06e-05 s⁻¹ and the kinact/KI is 708 M⁻¹ s⁻¹.

In the case of `C=CC(=O)N1CC(N2CCC(c3cc4c(cc3C#N)OCc3c(ncnc3N3CCOCC3)N4)CC2)C1` [compound 61], the melting point is greater than 300 °C. Further, the IC50 in series [1] is greater than 10000 nM. The compound also showed a pIC50 in series [2] of 5.70. In addition, in series [3], the Ki was found to be 0.83 µM, the kinact worked out at 5.1e-05 s⁻¹ and the kinact/KI was 61.4 M⁻¹ s⁻¹.

In turn, `C=CC(=O)N1CCC(N2CC(c3cc4c(c(C)n3)OCc3c(ncnc3N3CCS(=O)(=O)CC3)N4)C2)CC1` [compound 63] had a melting point of 190 °C. Also, the IC50 in series [1] was greater than 10000 nM. Besides, the pIC50 in series [2] was 5.77. Further, in series [3], the Ki amounted to 0.174 µM, the kinact came to 3.22e-05 s⁻¹ and the kinact/KI was 186 M⁻¹ s⁻¹.

Regarding `C=CC(=O)N1CC(N2CC(c3cc4c(c(C)n3)OCc3c(ncnc3N3CCS(=O)(=O)CC3)N4)C2)C1` [compound 64], the melting point was greater than 300 °C. Also, the IC50 in series [1] is greater than 10000 nM. In series [2], this compound showed a pIC50 of 5.14. Also, in series [3], the Ki came to 0.427 µM, the kinact is 4.81e-05 s⁻¹ and the kinact/KI worked out at 113 M⁻¹ s⁻¹.

Compound `C=CC(=O)N1CC(N2CCC(c3ccc4c(c3)Nc3ncnc(N5CCOCC5)c3C(CC)O4)CC2)C1` (stereo not drawn) [compound 66] yielded a melting point of 118 °C. The IC50 in series [1] was greater than 10000 nM. In series [2], this compound gave a negative-log IC50 (pIC50) of 6.03. In series [3], the Ki is 0.528 µM, the kinact is 4.52e-05 s⁻¹ and the kinact/KI amounted to 85.5 M⁻¹ s⁻¹.

In turn, `C=CC(=O)N1CC(N2CCN(c3cc4c(cn3)OCc3c(ncnc3N3CCOCC3)N4)CC2)C1` [compound 71] yielded a melting point of 256 °C. Besides, the IC50 in series [1] is greater than 10000 nM. The compound also had a negative logarithm of the IC50 (pIC50) in series [2] of 5.87. In addition, in series [3], the Ki stood at 3.2 µM, the kinact is 7.12e-05 s⁻¹ and the kinact/KI worked out at 22.2 M⁻¹ s⁻¹.

On to `C=CC(=O)N1CCC(N2CC(c3cc4c(c(C)n3)OCc3c(ncnc3N3CCS(=O)(=O)CC3)N4)C2)C1` (stereo not drawn) [compound 77], for which the melting point is greater than 300 °C. The IC50 in series [1] was greater than 10000 nM. Further, the pIC50 in series [2] was 5.39. In series [3], the Ki came to 0.172 µM, the kinact was found to be 3.83e-05 s⁻¹ and the kinact/KI was 223 M⁻¹ s⁻¹.

Compound `C=CC(=O)N1CCC(N2CC(c3cc(C)c4c(c3)Nc3ncnc(N5CCS(=O)(=O)CC5)c3CO4)C2)CC1` [compound 87] showed a melting point of 200 °C. Moreover, the IC50 in series [1] was 7760 nM. Further, the pIC50 in series [2] was 7.09. Besides, in series [3], the Ki was 0.234 µM, the kinact amounted to 4.3e-05 s⁻¹ and the kinact/KI was 184 M⁻¹ s⁻¹.

For the compound `C=CC(=O)N1CCC(N2CCC(c3cc(C)c4c(c3)Nc3ncnc(N5CCS(=O)(=O)CC5)c3CO4)CC2)CC1` [compound 88], the melting point was 256 °C. Also, the IC50 in series [1] is 8130 nM. The compound further showed a pIC50 in series [2] of 7.46. Moreover, in series [3], the Ki was 0.0485 µM, the kinact is 4.48e-05 s⁻¹ and the kinact/KI is 923 M⁻¹ s⁻¹.

In the case of `C=CC(=O)N1CCC(N2CCN(c3cc(C)c4c(c3)Nc3ncnc(N5CCS(=O)(=O)CC5)c3CO4)CC2)CC1` [compound 89], the melting point amounted to 203 °C. In series [1], the IC50 is greater than 10000 nM. In addition, in series [2], the pIC50 was 6.02. In series [3], the Ki turned out to be 0.128 µM, the kinact was 5.45e-05 s⁻¹ and the kinact/KI was 425 M⁻¹ s⁻¹.

`C=CC(=O)N1CCN(C2CCN(c3cc(C)c4c(c3)Nc3ncnc(N5CCS(=O)(=O)CC5)c3CO4)CC2)CC1` [compound 91] gave a melting point of 267 °C. In series [1], the IC50 was greater than 10000 nM. Also, in series [2], the pIC50 is 6.96. In addition, in series [3], the Ki was 0.0406 µM, the maximal inactivation rate constant (kinact) stood at 5.75e-05 s⁻¹ and the kinact/KI amounted to 1420 M⁻¹ s⁻¹.

`C=CC(=O)N1CC(N2CCC(c3cc(C)c4c(c3)Nc3ncnc(N5CC(CO)C5)c3CO4)CC2)C1` [compound 107] gave a melting point of 180 °C. The IC50 in series [1] is greater than 10000 nM. The compound also gave a pIC50 in series [2] of 5.41. In series [3], the Ki came to 0.96 µM, the kinact amounted to 5.21e-05 s⁻¹ and the kinact/KI came to 54.3 M⁻¹ s⁻¹.

In turn, `CC#CC(=O)N1CCC(N2CC(c3cc(C)c4c(c3)Nc3ncnc(N5CCS(=O)(=O)CC5)c3CO4)C2)CC1` [compound 133] returned a melting point of 180 °C. The IC50 in series [1] is 8510 nM. The pIC50 in series [2] is 7.04. Further, in series [3], the Ki came to 0.173 µM, the kinact was 2.65e-05 s⁻¹ and the kinact/KI is 153 M⁻¹ s⁻¹.

As to `CC#CC(=O)N1CCC(N2CCN(c3cc(C)c4c(c3)Nc3ncnc(N5CCS(=O)(=O)CC5)c3CO4)CC2)CC1` [compound 136], the melting point turned out to be 240 °C. In addition, the IC50 in series [1] was greater than 10000 nM. Also, the pIC50 in series [2] is 6.59. In series [3], the Ki is 0.0874 µM, the kinact turned out to be 5.36e-05 s⁻¹ and the kinact/KI came to 613 M⁻¹ s⁻¹.

As to `CC#CC(=O)N1CCN(C2CCN(c3cc(C)c4c(c3)Nc3ncnc(N5CCS(=O)(=O)CC5)c3CO4)CC2)CC1` [compound 137], the melting point turned out to be 267 °C. The IC50 in series [1] is greater than 10000 nM. Also, the pIC50 in series [2] was 6.78. In series [3], the Ki is 0.254 µM, the kinact came out at 9.43e-05 s⁻¹ and the kinact/KI is 372 M⁻¹ s⁻¹.

`CC#CC(=O)N1CC(N2CCC(c3cc(C)c4c(c3)Nc3ncnc(N5CCS(=O)(=O)CC5)c3CO4)CC2)C1` [compound 151] displayed a melting point of 189 °C. In series [1], the IC50 is greater than 10000 nM. In addition, in series [2], the pIC50 was 6.94. Besides, in series [3], the Ki stood at 0.16 µM, the kinact came to 5.91e-05 s⁻¹ and the kinact/KI stood at 370 M⁻¹ s⁻¹.
